These results are taken from patent publication US20240358611A1, “COMPOSITIONS” (SYMRISE AG, priority 2021, published 2024).

For experiment [1], the system named is LPS-stimulated, pro-inflammatory synthesis of IL-1B in RAW macrophages. Kind of experiment: LPS-stimulated IL-1B synthesis in RAW 264.7 macrophages (ELISA). The class given is cell-based, mouse. The note with it: LPS 10 ng/ml, 24 h. As to the method: (§1) RAW 264.7 (mouse macrophage tumor cells) cells were provided from the University of Cordoba in Spain and maintained in RPMI1640 medium containing FCS.
(§2) Cells are seeded in 24-well-plates (approx. 500 000 cells/ml in 1 ml) for ELISA experiments.
(§3) Cells are incubated without or with LPS (10 ng/ml) for 24 h. The pyrozol derivates or additives such as Thymol or Menthol (3 doses, 1, 10, 100 μM) are added 30 min before LPS treatment as single dose or in combination. […] After 24 h, supernatants are removed, centrifuged, and investigated for PGE2 concentrations in EIA (PGE2, from Cayman, isoprostane from Cayman) or ELISA (IL-1B, IL-6, TNF-alpha, Biotechne)). Each dose is investigated 2 times.
(§4) Optimal dose range for additives and substituted azacycles was determined in a preliminary assays dose finding assay (data not shown). Thus, test items are investigated at 10 μM 100 μM or any combination of the two doses for additive effects. Synergism is defined as additive effect surpassing the hypothetical mathematical value of effective doses. The hypothetical value is depicted in all graphs as dashed line.
For orientation: An ELISA detects its analyte on a solid surface through an enzyme-linked reagent.

The subject of experiment [2] is LPS-stimulated, pro-inflammatory synthesis of PGE2 in RAW macrophages. Kind of experiment: LPS-stimulated PGE2 synthesis in RAW 264.7 macrophages (EIA). Conditions: 10 μM in combination with 10 μM Thymol, LPS 10 ng/ml, 24 h. The format is cell-based, mouse. How it is done: as §1, §2, §3, §4
Where [3] appears, read: in combination with Menthol, 10 μM or 100 μM each, all tested combinations.
The mark [4] stands for this setting: in combination with Thymol, 10 μM or 100 μM each.

Turning to `CSC(C)C(=O)N1CCCC[C@@H]1c1ncc(-c2ccc(C)cc2)[nH]1` (stereo partly drawn) [CoNo11, 2-methylsulfanyl-1-[(1R)-2-[5-(p-tolyl)-1H-imidazol-2-yl]-1-piperidyl]-propan-1-one], the figures for the “effect on LPS-stimulated IL-1 beta synthesis” value in experiment [1] (setting [3]) and in experiment [1] (setting [4]) were “strong inhibition of IL-1 beta synthesis” and “strong synergistic soothing effect”, respectively.

For the molecule `CC1CCC(C(C)C)C(O)C1` (stereo not drawn) [Menthol], the “effect on LPS-stimulated IL-1 beta synthesis” value in experiment [1] (applied as single substance) is on record as “stimulates IL-1 beta synthesis”.

For the molecule `CC[C@H](C)C(=O)N1CCCCC1c1ncc(-c2ccc(C)cc2)[nH]1` (stereo partly drawn) [CoNo166, (2S)-2-methyl-1-[2-[5-(p-tolyl)-1H-imidazol-2-yl]-1-piperidyl]butan-1-one], the “effect on LPS-stimulated IL-1 beta synthesis” value in experiment [1] (setting [3]) is on record as “strong inhibition of IL-1 beta synthesis”; in experiment [1] (setting [4]), “strong synergistic soothing effect”. In addition, in experiment [2], the “effect on LPS-stimulated PGE2 synthesis” value is “synergistically mitigated PGE2 synthesis”.

Regarding `CCC(C)C(=O)N1CCCCC1c1ncc(-c2ccc(C)cc2)[nH]1` (stereo not drawn) [CoNo164, 2-methyl-1-[2-[5-(p-tolyl)-1H-imidazol-2-yl]-1-piperidyl]butan-1-one], the results for the “effect on LPS-stimulated IL-1 beta synthesis” value in experiment [1] (setting [3]) and in experiment [1] (setting [4]) were “strong inhibition of IL-1 beta synthesis” and “strong synergistic soothing effect”, respectively. For the same molecule, the “effect on LPS-stimulated PGE2 synthesis” value in experiment [2] is recorded as “synergistically mitigated PGE2 synthesis”.
